Measured values from patent publication US5849737A, “Compositions and methods for treating pain” (priority 1995, dated 1998).
“Also recorded” adds a separate entry of the source.

How the values were obtained:
[1] = Toxicity and plasma bupivacaine levels on intravenous infusion (GC assay); format: in vivo, Male Harlan Sprague-Dawley rats
From the text: For intravascular access, external jugular catheters were fashioned from PE-50 tubing and inserted into an external jugular vein under halothane/oxygen anesthesia. Arterial catheters were also fashioned from PE-50 with a small bouton 1 cm from the intravascular end for suture securing; they were inserted into a carotid artery, taking care to spare the surrounding nerves. All catheters were flushed with heparinized saline (10 U/ml) and tunneled subcutaneously to emerge at the posterior base of the neck, and capped when not in use.
For bupivacaine assays, samples were obtained by withdrawing and discarding approximately 0.3 cc of blood from arterial cannulae, and then withdrawing samples of approximately 0.5 cc volume. These samples were centrifuged and the plasma supernatant was frozen at -20° C. until analysis. […]
Bupivacaine was quantitated by capillary GC with nitrogen-phosphorus detection [Bjork M et al., Journal of Chromatography 533:229-234 (1990)]. […] Split injections (1.5:1) were performed with a Hewlett Packard 7673A automatic sampler, and the chromatograms were recorded and analyzed with H-P Chemstation (MSDOS) software. […]
Plasma drug levels and PWT were correlated using linear regression. Serially measured PWT and %MPE were compared using repeated measures ANOVA.

[2] = tested on: tactile allodynia (paw withdrawal thresholds); experiment: Tactile allodynia (50% paw withdrawal threshold, von Frey) after intravenous drug, L5/L6 spinal nerve ligated rats; format: in vivo, Male Harlan Sprague-Dawley rats
From the text: For intravascular access, external jugular catheters were fashioned from PE-50 tubing and inserted into an external jugular vein under halothane/oxygen anesthesia. Arterial catheters were also fashioned from PE-50 with a small bouton 1 cm from the intravascular end for suture securing; they were inserted into a carotid artery, taking care to spare the surrounding nerves. All catheters were flushed with heparinized saline (10 U/ml) and tunneled subcutaneously to emerge at the posterior base of the neck, and capped when not in use. […] Rats were placed in a plastic cage with an open wire mesh bottom and allowed to accommodate for approximately fifteen minutes. A series of 8 von Frey filaments with logarithmically incremental stiffness (0.41, 0.70, 1.20, 2.00, 3.63, 5.50, 8.50, and 15.10 g) (Stoelting, Wood Dale, Ill.) was used to determine the 50% threshold for paw withdrawal to light mechanical stimuli (PWT). In brief, von Frey hairs were sequentially applied using an up-and-down paradigm to the left mid-plantar hindpaw with sufficient force to cause slight filament buckling. Positive responses were noted if the paw was sharply withdrawn. […] Otherwise, PWT were calculated by noting the stimulus level at which the first change in behavior occurred, collecting four additional responses to the continued up-and-down oscillation of stimulus presentation around the response threshold, and interpolating the 50% response threshold. […] The following equation was used to compute %MPE: [formula] Plasma drug levels and PWT were correlated using linear regression. Serially measured PWT and %MPE were compared using repeated measures ANOVA.

[3] = tested on: peripheral nerve injury pain; details: lidocaine intravenous; mexiletine oral; cited from earlier work
neuropathic pain states = details: orally available lidocaine congeners; systemically administered local anesthetics; cited from earlier work
[4] = tested on: painful diabetic neuropathy; details: lidocaine intravenous; mexiletine oral; cited from earlier work
trigeminal neuralgia = details: oral; cited from earlier work

Row | SMILES | toxicity on intravenous infusion ([1]; IV infusion) | mean plasma level at higher doses that resulted in seizure ([1]; IV, N=4, unit not given) | effect of intravenous infusion on allodynia ([2]; IV infusion, up to plasma concentrations which caused evident toxicity, 15 samples from 4 rats, P=0.11, linear regression) | correlation of plasma bupivacaine levels with %MPE (allodynia suppression) ([2]; IV, 4 rats, 15 samples, plasma levels up to toxic range (FIG. 1)) | clinical effect in peripheral nerve injury pain [3] | clinical efficacy in neuropathic pain states (neuropathic pain states) | tolerability in neuropathic pain states (neuropathic pain states) | clinical effect in painful diabetic neuropathy [4] | clinical effect in trigeminal neuralgia (trigeminal neuralgia)
1 | CCCCN1CCCCC1C(=O)Nc1c(C)cccc1C (centres unmarked) [bupivacaine] | ataxia and lethargy; also recorded: Higher doses resulted in seizure | 7.4±0.7 | inactive against allodynia; also recorded: no effect on allodynia | lack of correlation |  |  |  |  | 
2 | Cc1cccc(C)c1OCC(C)N (centres unmarked) [mexiletine] |  |  |  |  | analgesic effects | far from universally effective | in many cases are poorly tolerated due to side effects, including some which may be life-threatening | analgesic effects | 
3 | Cc1cccc(C)c1NC(=O)C(C)N (centres unmarked) [tocainide] |  |  |  |  |  | far from universally effective | in many cases are poorly tolerated due to side effects, including some which may be life-threatening |  | analgesic effects
